Measured values taken from ChEMBL document CHEMBL5724696, “Autophagy assay results for EUbOPEN Chemogenomics Library” (2024).
Where “and” joins values, the source holds several entries; their conditions need not be identical. Identical values can stand only once.

Columns and labels:
Type in all cases: functional, Homo sapiens
U2OS [1] = assay: (§1) Here: values are normalized to the positive (DMSO; basel flux = defined as 100% suppression) and negative (250nM Torin1; mTOR inhibitor; maximal inducer of autophagy defined as 0% suppression) control compounds and represented as % of ER-phagy suppression. […] The impact of autophagy induction on cells is complex and depends on the affected target. […] Of note, treatment concentrations may be sub-optimal for specific compounds, leading to false negative annotations.; conditions: Compound Concentration 1 uM, Culturing Media DMEM, 1 % Penicillin/Streptomycin, 10% Fetal bovin serum Add-On: blasticidin, Screening Media Control DMEM, 10% Fetal bovin serum Add-On: 1 µg/ml Doxycyclin, Screening Media Samples DMEM, 10% Fetal bovin serum Add-On: 1 µg/ml Doxycyclin 250nM Torin1
U2OS [2] = assay: as §1; conditions: Compound Concentration 1 uM, Culturing Media DMEM, 1 % Penicillin/Streptomycin, 10% Fetal bovin serum Add-On: blasticidin, Screening Media Control DMEM, 10% Fetal bovin serum Add-On: 1 µg/ml Doxycyclin, Screening Media Samples DMEM, 10% Fetal bovin serum Add-On: 1 µg/ml Doxycyclin 250nM Torin1; remark: listed apart in the source
U2OS [3] = assay: (§2) Here: values are normalized to the negative (DMSO; defined as 0% autophagy induction) and positive (250nM Torin1; mTOR inhibitor; defined as maximal inducer of autophagy = 100%) control compounds and represented as % of autophagy induction. […] The impact of autophagy induction on cells is complex and depends on the affected target. As such, the magnitude of a phenotype may not be equally mirrored in the %-value of autophagy induction and vice versa. The dynamics of the induction may indicate the mode of activation: e.g. activation via phosphorylation or a signaling cascade may occur fast, while activation via transcription factors may take considerably longer. […] Of note, treatment concentrations may be sub-optimal for specific compounds, leading to false negative annotations.; conditions: Culturing Media DMEM, 1 % Penicillin/Streptomycin, 10% Fetal bovin serum Add-On: No, Screening Media Control DMEM, Screening Media Samples DMEM
TERT-RPE1 = assay: as §2; conditions: Culturing Media DMEM/F12 (1:1), 1 % Penicillin/Streptomycin, 10% Fetal bovin serum Add-On: No, Screening Media Control DMEM/F12 (1:1), Screening Media Samples DMEM/F12 (1:1)
U2OS [4] = assay: as §2; conditions: Culturing Media DMEM, 1 % Penicillin/Streptomycin, 10% Fetal bovin serum Add-On: No, Screening Media Control DMEM, Screening Media Samples DMEM; remark: listed apart in the source
[5] = Compound Concentration 0.5 uM, Timepoint 12 hours
[6] = Compound Concentration 0.5 uM, Timepoint 24 hours
[7] = Compound Concentration 0.5 uM, Timepoint 36 hours
[8] = Compound Concentration 0.5 uM, Timepoint 60 hours
[9] = Compound Concentration 2 uM, Timepoint 12 hours
[10] = Compound Concentration 2 uM, Timepoint 24 hours
[11] = Compound Concentration 2 uM, Timepoint 36 hours
[12] = Compound Concentration 2 uM, Timepoint 60 hours
[13] = Compound Concentration 10 uM, Timepoint 12 hours
[14] = Compound Concentration 10 uM, Timepoint 24 hours
[15] = Compound Concentration 10 uM, Timepoint 36 hours
[16] = Compound Concentration 10 uM, Timepoint 60 hours

Molecule C[C@@H](N)[C@H]1CC[C@H](C(=O)Nc2ccncc2)CC1.Cl.Cl has an ER-phagy suppression (U2OS [1]; Timepoint 12 hours) of -1.165%, an ER-phagy suppression (U2OS [1]; Timepoint 24 hours) of -12.4028% and an ER-phagy suppression (U2OS [1]; Timepoint 36 hours) of 0.04526%. For the same molecule, the ER-phagy suppression (U2OS [1]; Timepoint 60 hours) was 2.669%, the ER-phagy suppression (U2OS [2]; Timepoint 12 hours) was -40.2837% and the ER-phagy suppression (U2OS [2]; Timepoint 24 hours) was -57.1688%. For the same molecule, the ER-phagy suppression (U2OS [2]; Timepoint 36 hours) was -58.7515% and the ER-phagy suppression (U2OS [2]; Timepoint 54 hours) was -55.2677%.

CCOc1cc(N2CCC(O)CC2)ccc1Nc1ncc2c(n1)N(C)c1ccccc1C(=O)N2C showed an ER-phagy suppression (U2OS [1]; Timepoint 12 hours) of 41.1735%, an ER-phagy suppression (U2OS [1]; Timepoint 24 hours) of 16.7232% and an ER-phagy suppression (U2OS [1]; Timepoint 36 hours) of 17.4074%. For the same molecule, the ER-phagy suppression (U2OS [1]; Timepoint 60 hours) was 10.8345%, the ER-phagy suppression (U2OS [2]; Timepoint 12 hours) was -49.4363% and the ER-phagy suppression (U2OS [2]; Timepoint 24 hours) was -63.2462%. For the same molecule, the ER-phagy suppression (U2OS [2]; Timepoint 36 hours) was -50.7543% and the ER-phagy suppression (U2OS [2]; Timepoint 54 hours) was -40.8997%.

Work on CN([C@@H](Cc1ccc(OS(=O)(=O)c2cccc3cnccc23)cc1)C(=O)N1CCN(c2ccccc2)CC1)S(=O)(=O)c1cccc2cnccc12 yielded an ER-phagy suppression (U2OS [1]; Timepoint 12 hours) of 11.3745%, an ER-phagy suppression (U2OS [1]; Timepoint 24 hours) of -2.8225% and an ER-phagy suppression (U2OS [1]; Timepoint 36 hours) of -4.115%. The ER-phagy suppression (U2OS [1]; Timepoint 60 hours) was -4.142%, the ER-phagy suppression (U2OS [2]; Timepoint 12 hours) was -1.9452% and the ER-phagy suppression (U2OS [2]; Timepoint 24 hours) was -10.891%. The ER-phagy suppression (U2OS [2]; Timepoint 36 hours) was -4.8506% and the ER-phagy suppression (U2OS [2]; Timepoint 54 hours) was -2.408%.

O=C(NCc1cccc(O)c1)Nc1nc(-c2ccncc2)cs1 gave an ER-phagy suppression (U2OS [1]; Timepoint 12 hours) of 38.3546%, an ER-phagy suppression (U2OS [1]; Timepoint 24 hours) of 42.4931% and an ER-phagy suppression (U2OS [1]; Timepoint 36 hours) of 43.3897%. For the same molecule, the ER-phagy suppression (U2OS [1]; Timepoint 60 hours) was 45.9293%, the ER-phagy suppression (U2OS [2]; Timepoint 12 hours) was -63.2417% and the ER-phagy suppression (U2OS [2]; Timepoint 24 hours) was -37.1145%. For the same molecule, the ER-phagy suppression (U2OS [2]; Timepoint 36 hours) was 6.149% and the ER-phagy suppression (U2OS [2]; Timepoint 54 hours) was 46.7933%.

With COc1ccccc1-c1cc(Nc2cccc(CS(N)(=O)=O)c2)ncn1 the ER-phagy suppression (U2OS [1]; Timepoint 12 hours) was 64.2077%, the ER-phagy suppression (U2OS [1]; Timepoint 24 hours) was 50.2137% and the ER-phagy suppression (U2OS [1]; Timepoint 36 hours) was 56.273%. For the same molecule, the ER-phagy suppression (U2OS [1]; Timepoint 60 hours) was 39.1119%, the ER-phagy suppression (U2OS [2]; Timepoint 12 hours) was -2.879% and the ER-phagy suppression (U2OS [2]; Timepoint 24 hours) was 2.7876%. For the same molecule, the ER-phagy suppression (U2OS [2]; Timepoint 36 hours) was 9.9584% and the ER-phagy suppression (U2OS [2]; Timepoint 54 hours) was 17.8632%.

For Cl.Cl.NC1(c2ccc(-c3nc4ccn5c(=O)[nH]nc5c4cc3-c3ccccc3)cc2)CCC1, the ER-phagy suppression (U2OS [1]; Timepoint 12 hours) was 41.5267%, the ER-phagy suppression (U2OS [1]; Timepoint 24 hours) was 48.6663% and the ER-phagy suppression (U2OS [1]; Timepoint 36 hours) was 54.9602%. For the same molecule, the ER-phagy suppression (U2OS [1]; Timepoint 60 hours) was 60.1398%, the ER-phagy suppression (U2OS [2]; Timepoint 12 hours) was 6.566% and the ER-phagy suppression (U2OS [2]; Timepoint 24 hours) was 12.3552%. It also gave an ER-phagy suppression (U2OS [2]; Timepoint 36 hours) of 31.5322% and an ER-phagy suppression (U2OS [2]; Timepoint 54 hours) of 46.784%.

Work on Cl.Cl.Nc1nccc(-c2c(-c3ccc(F)cc3)ncn2C2CCCCC2)n1 yielded an ER-phagy suppression (U2OS [2]; Timepoint 12 hours) of 12.007%, an ER-phagy suppression (U2OS [2]; Timepoint 24 hours) of 14.1245% and an ER-phagy suppression (U2OS [2]; Timepoint 36 hours) of 19.9643%. The ER-phagy suppression (U2OS [2]; Timepoint 54 hours) was 25.2011%.

CCCSc1nc(N[C@@H]2C[C@H]2c2ccc(F)c(F)c2)c2nnn([C@@H]3C[C@H](OCCO)[C@@H](O)[C@H]3O)c2n1 [TICAGRELOR] showed an autophagy induction (U2OS [3]; [5]) of -9.844%, an autophagy induction (U2OS [3]; [6]) of -12.5107% and an autophagy induction (U2OS [3]; [7]) of -15.2375%. For the same molecule, the autophagy induction (U2OS [3]; [8]) was -18.2861%, the autophagy induction (U2OS [3]; [9]) was 2.324% and the autophagy induction (U2OS [3]; [10]) was -7.302%. For the same molecule, the autophagy induction (U2OS [3]; [11]) was -3.06%, the autophagy induction (U2OS [3]; [12]) was -7.4162% and the autophagy induction (U2OS [3]; [13]) was -4.369%. For the same molecule, the autophagy induction (U2OS [3]; [14]) was -2.6496%, the autophagy induction (U2OS [3]; [15]) was -0.7195% and the autophagy induction (U2OS [3]; [16]) was 1.979%. For the same molecule, the autophagy induction (TERT-RPE1; Compound Concentration 0.5 uM, Timepoint 12 hours, 12 h, 0.5 µM) was -0.3223% and -0.8015%, the autophagy induction (TERT-RPE1; Compound Concentration 0.5 uM, Timepoint 24 hours, 24 h, 0.5 µM) was 2.932% and -1.64% and the autophagy induction (TERT-RPE1; Compound Concentration 0.5 uM, Timepoint 36 hours, 36 h, 0.5 µM) was 3.182% and -0.1292%. For the same molecule, the autophagy induction (TERT-RPE1; Compound Concentration 0.5 uM, Timepoint 60 hours, 60 h, 0.5 µM) was 6.614% and -2.465%, the autophagy induction (TERT-RPE1; Compound Concentration 2 uM, Timepoint 12 hours, 12 h, 2 µM) was -2.164% and 3.738% and the autophagy induction (TERT-RPE1; Compound Concentration 2 uM, Timepoint 24 hours, 24 h, 2 µM) was 2.13% and 2.219%. For the same molecule, the autophagy induction (TERT-RPE1; Compound Concentration 2 uM, Timepoint 36 hours, 36 h, 2 µM) was 3.83% and 3.863%, the autophagy induction (TERT-RPE1; Compound Concentration 2 uM, Timepoint 60 hours, 60 h, 2 µM) was 10.3636% and 4.688% and the autophagy induction (TERT-RPE1; Compound Concentration 10 uM, Timepoint 12 hours, 12 h, 10 µM) was 2.799% and 5.117%. For the same molecule, the autophagy induction (TERT-RPE1; Compound Concentration 10 uM, Timepoint 24 hours, 24 h, 10 µM) was 8.7588% and 7.492%, the autophagy induction (TERT-RPE1; Compound Concentration 10 uM, Timepoint 36 hours, 36 h, 10 µM) was 16.5266% and 7.688% and the autophagy induction (U2OS [4]; [5]) was -3.602%. For the same molecule, the autophagy induction (U2OS [4]; [6]) was -3.07%, the autophagy induction (U2OS [4]; [7]) was -60.4394% and the autophagy induction (U2OS [4]; [8]) was -2.316%. For the same molecule, the autophagy induction (U2OS [4]; [9]) was -5.583%, the autophagy induction (U2OS [4]; [10]) was -3.174% and the autophagy induction (U2OS [4]; [11]) was -60.5106%. For the same molecule, the autophagy induction (U2OS [4]; [12]) was -3.163%, the autophagy induction (U2OS [4]; [13]) was -2.648% and the autophagy induction (U2OS [4]; [14]) was 1.759%. It also gave an autophagy induction (U2OS [4]; [15]) of -58.5177% and an autophagy induction (U2OS [4]; [16]) of -2.994%.

Molecule CCC(=O)N1CCN(c2ccc(-n3c(=O)ccc4cnc5ccc(-c6cnc7ccccc7c6)cc5c43)cc2C(F)(F)F)CC1 [TORIN1] has an ER-phagy suppression (U2OS [2]; Timepoint 12 hours) of 3.915%, an ER-phagy suppression (U2OS [2]; Timepoint 24 hours) of -7.7479% and an ER-phagy suppression (U2OS [2]; Timepoint 36 hours) of -6.712%. For the same molecule, the ER-phagy suppression (U2OS [2]; Timepoint 54 hours) was -3.9465%.
